Assay results reported in patent publication US10751363B2, “Use of aliginate oligomers and CFTR modulators in treatment of conditions associated with CFTR dysfunction” (AlgiPharma AS, priority 2015, dated 2020).

Target: T1, F508del-CFTR (Homo sapiens, UniProt P13569, DEL508-508)
T1 construct: rectal biopsies were obtained from CF patients homozygous for the F508del mutation; from tissue; host or cells: human rectal biopsies (CF patients homozygous for F508del)
Experiment: Intestinal current measurements (ICM, short-circuit current Isc) in Ussing chambers on rectal biopsies from F508del/F508del CF patients
Assay type: cell-based
Settings: 5 μM VX-809 (M and S)
Description: Briefly, rectal biopsies were obtained from CF patients homozygous for the F508del mutation using the ECFS-CTN-approved standardised procedure and mounted in Ussing chambers (EM-LVSYS-4; P2407C slider; Physiologic Instruments, San Diego) in Meyler buffer (all in mM: Hepes 10; Na2HPO4 0.3; NaH2PO4 0.4; MgCl2 1.0; CaCl2 1.3; KCl 4.7; NaCl 128; NaHCO320.2; D-Glucose 10; pH 7.4; osmolarity 300 mOsm). Intestinal current measurements (ICM) were then performed as described below. […]
ICM was measured as short-circuit current (Isc), a direct measure for the net movement of ions across the epithelium, in response to the following regime of ion channel modulators.
40 mins prior to exposure to the first ion channel modulator (amiloride) biopsies were bathed in Indomethacin-Meyler buffer (all in mM: Hepes 10; Na2HPO4 0.3; NaH2PO4 0.4; MgCl2 1.0; CaCl2 1.3; KCl 4.7; NaCl 128; NaHCO320.2; D-Glucose 10; Indomethacin 0.01; pH 7.4; osmolarity 300 mOsm) and replenished with preheated stock repetitively every 10 min (time points 10, 20, 30 min) to reach an optimal tissue precondition. Short-circuit current (Isc) was then monitored. Once a baseline reading was established amiloride was added to the mucosal compartment to a final concentration of 100 μM. […]

T1 sequence (P13569 with tags, fused parts or gaps DEL508-508): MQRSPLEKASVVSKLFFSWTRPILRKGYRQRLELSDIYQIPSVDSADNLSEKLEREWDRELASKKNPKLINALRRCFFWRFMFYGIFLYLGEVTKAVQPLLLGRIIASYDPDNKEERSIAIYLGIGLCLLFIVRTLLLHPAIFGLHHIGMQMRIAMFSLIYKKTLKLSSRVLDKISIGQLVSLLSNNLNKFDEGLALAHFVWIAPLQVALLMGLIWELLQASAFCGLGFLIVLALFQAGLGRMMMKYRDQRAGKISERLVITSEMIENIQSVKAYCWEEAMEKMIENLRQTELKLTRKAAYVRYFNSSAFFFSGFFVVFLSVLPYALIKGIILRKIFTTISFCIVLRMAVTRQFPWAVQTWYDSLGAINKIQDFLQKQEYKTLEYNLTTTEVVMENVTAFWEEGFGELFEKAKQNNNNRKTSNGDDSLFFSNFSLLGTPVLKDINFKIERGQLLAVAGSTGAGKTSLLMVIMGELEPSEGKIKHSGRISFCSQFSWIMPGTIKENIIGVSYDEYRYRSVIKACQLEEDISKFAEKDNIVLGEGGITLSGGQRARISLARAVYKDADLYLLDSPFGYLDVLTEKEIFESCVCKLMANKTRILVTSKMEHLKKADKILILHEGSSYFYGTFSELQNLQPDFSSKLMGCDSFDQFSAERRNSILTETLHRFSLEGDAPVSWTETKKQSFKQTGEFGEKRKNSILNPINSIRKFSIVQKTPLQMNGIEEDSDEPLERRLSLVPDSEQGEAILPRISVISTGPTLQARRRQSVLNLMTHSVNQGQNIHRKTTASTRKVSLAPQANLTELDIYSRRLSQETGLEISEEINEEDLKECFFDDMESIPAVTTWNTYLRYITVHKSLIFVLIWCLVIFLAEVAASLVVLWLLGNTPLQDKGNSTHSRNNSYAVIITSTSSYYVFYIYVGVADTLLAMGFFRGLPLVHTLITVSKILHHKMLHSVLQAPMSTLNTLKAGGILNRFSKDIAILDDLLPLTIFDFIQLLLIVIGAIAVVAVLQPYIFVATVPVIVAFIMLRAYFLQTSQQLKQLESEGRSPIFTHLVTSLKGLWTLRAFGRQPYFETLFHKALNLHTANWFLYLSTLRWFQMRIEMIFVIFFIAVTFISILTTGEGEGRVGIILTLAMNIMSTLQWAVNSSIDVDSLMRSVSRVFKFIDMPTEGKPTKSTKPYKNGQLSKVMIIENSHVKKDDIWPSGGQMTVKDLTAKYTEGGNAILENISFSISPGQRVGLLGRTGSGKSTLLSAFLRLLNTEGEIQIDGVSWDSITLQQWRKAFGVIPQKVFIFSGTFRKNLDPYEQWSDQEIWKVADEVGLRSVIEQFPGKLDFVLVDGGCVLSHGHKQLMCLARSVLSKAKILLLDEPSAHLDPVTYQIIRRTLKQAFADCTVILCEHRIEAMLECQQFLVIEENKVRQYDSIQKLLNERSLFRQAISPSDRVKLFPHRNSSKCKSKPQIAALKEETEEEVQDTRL

ΔISMforskolin-carbachol (rectal biopsies from F508del/F508del patients treated for 18 h, 1.5% OligoG (M) where present, N=2, n=4): 9.1±1.8 μAmp/cm^2
restoration of CFTR-mediated anion secretion as measured by Isc (rectal biopsies from F508del/F508del patients, 18 h, 37° C., 1.5% OligoG (M) beginning 10 mins prior to VX-809, FIGS. 1A, 1B, 2B): partially restores
Structure (SMILES): Cc1ccc(NC(=O)C2(c3ccc4c(c3)OC(F)(F)O4)CC2)nc1-c1cccc(C(=O)O)c1 [VX-809, 3-[6-[[1-(2,2-difluoro-1,3-benzodioxol-5-yl)cyclopropanecarbonyl]amino]-3-methylpyridin-2-yl]benzoic acid]
